Data from the supplement of paper PMC11451515.

Test system: NOMO1
Test: cell viability relative to DMSO control; higher = less cytotoxic
Conditions: 48 h
Outline: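 NOMO1 or SEM cells were plated at 500 cells/well and P12-Ichikawa cells at 1000 cells/well in 1536-well plates (5 μl), after each leukemia line had been adapted for at least four passages in each medium. Pin dosing delivered library compounds in DMSO at 11 threefold concentrations, 47 μM to 0.79 nM. CellTiter-Glo One luminescence was read after 48 h at 37°C. Viability is reported as a per-plate percentage of DMSO wells, with cell-free wells as background.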

[1] = HPLM + 10% dialyzed FBS, 0.000781 µM
[2] = HPLM + 10% dialyzed FBS, 0.00234 µM
[3] = HPLM + 10% dialyzed FBS, 0.00702 µM
[4] = HPLM + 10% dialyzed FBS, 0.0211 µM
[5] = HPLM + 10% dialyzed FBS, 0.0632 µM
[6] = HPLM + 10% dialyzed FBS, 0.19 µM
[7] = HPLM + 10% dialyzed FBS, 0.569 µM
[8] = HPLM + 10% dialyzed FBS, 1.71 µM
[9] = HPLM + 10% dialyzed FBS, 5.12 µM
[10] = HPLM + 10% dialyzed FBS, 15.4 µM
[11] = HPLM + 10% dialyzed FBS, 46.1 µM
[12] = RPMI 5 mM glucose + 10% FBS, 0.000781 µM
[13] = RPMI 5 mM glucose + 10% FBS, 0.00234 µM
[14] = RPMI 5 mM glucose + 10% FBS, 0.00702 µM
[15] = RPMI 5 mM glucose + 10% FBS, 0.0211 µM
[16] = RPMI 5 mM glucose + 10% FBS, 0.0632 µM
[17] = RPMI 5 mM glucose + 10% FBS, 0.19 µM
[18] = RPMI 5 mM glucose + 10% FBS, 0.569 µM
[19] = RPMI 5 mM glucose + 10% FBS, 1.71 µM
[20] = RPMI 5 mM glucose + 10% FBS, 5.12 µM
[21] = RPMI 5 mM glucose + 10% FBS, 15.4 µM
[22] = RPMI 5 mM glucose + 10% FBS, 46.1 µM
[23] = RPMI 5 mM glucose + 10% dialyzed FBS, 0.000781 µM
[24] = RPMI 5 mM glucose + 10% dialyzed FBS, 0.00234 µM
[25] = RPMI 5 mM glucose + 10% dialyzed FBS, 0.00702 µM
[26] = RPMI 5 mM glucose + 10% dialyzed FBS, 0.0211 µM
[27] = RPMI 5 mM glucose + 10% dialyzed FBS, 0.0632 µM
[28] = RPMI 5 mM glucose + 10% dialyzed FBS, 0.19 µM
[29] = RPMI 5 mM glucose + 10% dialyzed FBS, 0.569 µM
[30] = RPMI 5 mM glucose + 10% dialyzed FBS, 1.71 µM
[31] = RPMI 5 mM glucose + 10% dialyzed FBS, 5.12 µM
[32] = RPMI 5 mM glucose + 10% dialyzed FBS, 15.4 µM
[33] = RPMI 5 mM glucose + 10% dialyzed FBS, 46.1 µM

Row | Structure (SMILES) | cell viability [1] | cell viability [2] | cell viability [3] | cell viability [4] | cell viability [5] | cell viability [6] | cell viability [7] | cell viability [8] | cell viability [9] | cell viability [10] | cell viability [11] | cell viability [12] | cell viability [13] | cell viability [14] | cell viability [15] | cell viability [16] | cell viability [17] | cell viability [18] | cell viability [19] | cell viability [20] | cell viability [21] | cell viability [22] | cell viability [23] | cell viability [24] | cell viability [25] | cell viability [26] | cell viability [27] | cell viability [28] | cell viability [29] | cell viability [30] | cell viability [31] | cell viability [32] | cell viability [33]
1 | C[S+](=O)([O-])N1CCc2c(-c3cnc(N)nc3)nc(N3CCOCC3)nc21 | 105% | 102% | 112% | 118% | 104% | 107% | 86.6% | 76.4% | 77.9% | 76.2% | 74.4% | 107% | 104% | 99.3% | 110% | 102% | 99.5% | 101% | 88.9% | 95% | 81.9% | 74% | 99% | 103% | 99.6% | 97.7% | 93.6% | 96.9% | 77.3% | 69.4% | 73.7% | 69.7% | 56.8%
2 | O=C(O[C@H]1C[C@H]2CC[C@@H](C1)[N+]21CCCC1)C(O)(c1ccccc1)c1ccccc1.[Cl-] | 95.5% | 116% | 121% | 107% | 124% | 116% | 116% | 116% | 116% | 110% | 106% | 89.4% | 95.7% | 99.6% | 89.9% | 92.3% | 98.3% | 96.8% | 105% | 100% | 105% | 92.1% | 97.6% | 98.8% | 111% | 109% | 98.1% | 102% | 94.8% | 95% | 111% | 106% | 108%
3 | CCC(C)(C)c1ccc(CC(C)CN2C[C@@H](C)O[C@@H](C)C2)cc1 (some centres undefined) | 87.4% | 91.8% | 87.9% | 82% | 93.3% | 84.8% | 97% | 80.9% | 93.6% | 87.1% | 87.9% | 71.5% | 74.7% | 73.5% | 77.9% | 77.5% | 76.5% | 75.8% | 82.3% | 77.9% | 80.7% | 77.5% | 69.8% | 87.9% | 78.8% | 77% | 83.4% | 82% | 90.2% | 84% | 85.2% | 86.2% | 88%
4 | CC(C)C(=O)Nc1ccc([N+](=O)[O-])c(C(F)(F)F)c1 | 118% | 120% | 118% | 128% | 140% | 137% | 44% | 39.3% | 39% | 42.3% | 41.3% | – | – | – | – | – | – | – | – | – | – | – | – | – | – | – | – | – | – | – | – | – | –
5 | CN1\C(=C(\O)C2=CC=CC=C2[S+]1([O-])=O)C(=O)NC3=NC=C(C)S3 | 101% | 111% | 101% | 114% | 99.5% | 116% | 113% | 116% | 102% | 86.1% | 116% | 81.1% | 91.5% | 88.4% | 91.7% | 98.7% | 96.8% | 101% | 88.3% | 96.7% | 99.3% | 95.9% | 84.2% | 86.3% | 85.6% | 81.9% | 81.5% | 93.6% | 79.6% | 76% | 91.9% | 92.7% | 91.8%
6 | O=C(O)c1ccc2c(c1)nc(Nc1cccc(Cl)c1)c1ccncc12 | 114% | 109% | 131% | 115% | 114% | 119% | 125% | 114% | 73.8% | 49.2% | 78.1% | 93% | 93.5% | 103% | 103% | 94.6% | 103% | 92.7% | 90.8% | 83.7% | 65.6% | 79.2% | 100% | 105% | 101% | 101% | 107% | 99.1% | 91.9% | 101% | 81.5% | 47.2% | 77.5%
7 | O=C1c2c(O)ccc(O)c2C(=O)c2c(NCCNCCO)ccc(NCCNCCO)c21 | 95% | 113% | 127% | 131% | 120% | 124% | 29.3% | 92.4% | 27.3% | 24.3% | 5.26% | 102% | 102% | 107% | 108% | 100% | 105% | 18.5% | 110% | 18.2% | 17.2% | 4.37% | 107% | 113% | 108% | 113% | 112% | 103% | 53.2% | 107% | 20.3% | 27.1% | 3.81%
8 | COC(=O)[C@@H]1[C@H]2C[C@H]3c4[nH]c5ccccc5c4CCN3C[C@@H]2CC[C@@H]1O | 120% | 127% | 122% | 131% | 132% | 128% | 108% | 41.2% | 39.8% | 44.5% | 35.6% | – | – | – | – | – | – | – | – | – | – | – | – | – | – | – | – | – | – | – | – | – | –
9 | O=C(Nc1ccccc1-c1cn2c(CN3CCNCC3)csc2n1)c1cnc2ccccc2n1 | 91.8% | 83% | 71.9% | 77.7% | 82.6% | 92% | 81.9% | 66.6% | 79.3% | 74.2% | 76.3% | 76.6% | 80.6% | 82.9% | 85.1% | 79.7% | 85.3% | 70.3% | 68.1% | 77.1% | 65.6% | 0.639% | 86.3% | 84.6% | 96% | 90.5% | 80% | 80.2% | 74.2% | 86.8% | 79.4% | 69% | 75.1%
10 | CCN1\C=C(\C(O)=O)C(=O)C2=CC=C(C)N=C12 | 75.3% | 87.7% | 99.4% | 103% | 102% | 116% | 95.8% | 100% | 81.7% | 88.1% | 47.4% | 81.9% | 103% | 98.2% | 89.1% | 103% | 96.6% | 100% | 91% | 99.9% | 90.6% | 56% | 66.6% | 76.6% | 71.2% | 80.1% | 83.2% | 83.5% | 80.5% | 89.5% | 82.5% | 81.6% | 61.7%
11 | CSCC[C@@H](NC(=O)[C@@H](Cc1ccccc1)NC(=O)CNC(=O)CNC(=O)[C@@H](N)Cc1ccc(O)cc1)C(=O)O | 77.4% | 90.8% | 110% | 28.1% | 110% | 121% | 121% | 104% | 92% | 100% | 109% | 91.8% | 89.3% | 105% | 22.1% | 110% | 103% | 102% | 100% | 95.4% | 101% | 97.9% | 87.1% | 97.4% | 94.6% | 34.8% | 88.3% | 103% | 97.6% | 111% | 99.9% | 113% | 109%
